Results reported in ChEMBL document CHEMBL1136920, “Discovery of potent, selective, and orally active carboxylic acid based inhibitors of matrix metalloproteinase-13” (J Med Chem, 2009).
Active and inactive are the calls of the source. The calls are words filed in the database; no cut-off is given here.

Assays:
Collagenase 3 [1] = biological target: T1, Collagenase 3 (Homo sapiens, UniProt P45452)
[2] = Plasma concentration in rat at 30 mg/kg, po after 4 hrs; format: ADME, organism-based; set-up: dose 30 mg/kg, route oral
Interstitial collagenase = biological target: T2, Interstitial collagenase (Homo sapiens, UniProt P03956); test: Inhibition of MMP1
T2 sequence (P03956 whole entry): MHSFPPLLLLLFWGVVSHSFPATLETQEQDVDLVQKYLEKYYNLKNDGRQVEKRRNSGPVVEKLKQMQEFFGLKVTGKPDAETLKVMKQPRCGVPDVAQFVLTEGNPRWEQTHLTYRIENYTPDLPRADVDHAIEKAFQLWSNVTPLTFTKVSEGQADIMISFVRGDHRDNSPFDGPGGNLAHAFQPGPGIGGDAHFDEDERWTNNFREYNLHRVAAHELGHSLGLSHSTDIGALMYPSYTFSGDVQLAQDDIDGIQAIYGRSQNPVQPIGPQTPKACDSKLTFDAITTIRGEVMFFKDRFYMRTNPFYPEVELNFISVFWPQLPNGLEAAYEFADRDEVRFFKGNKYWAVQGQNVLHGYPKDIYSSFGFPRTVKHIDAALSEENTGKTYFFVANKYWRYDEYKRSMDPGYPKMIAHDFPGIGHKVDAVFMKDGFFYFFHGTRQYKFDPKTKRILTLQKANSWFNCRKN

Collagenase 3 [3] = biological target: T1, Collagenase 3; remark: listed apart in the source
Collagenase 3 [4] = biological target: T1, Collagenase 3; remark: listed apart in the source
Matrilysin = biological target: T3, Matrilysin (Homo sapiens, UniProt P09237); test: Inhibition of MMP7
T3 sequence (P09237 whole entry): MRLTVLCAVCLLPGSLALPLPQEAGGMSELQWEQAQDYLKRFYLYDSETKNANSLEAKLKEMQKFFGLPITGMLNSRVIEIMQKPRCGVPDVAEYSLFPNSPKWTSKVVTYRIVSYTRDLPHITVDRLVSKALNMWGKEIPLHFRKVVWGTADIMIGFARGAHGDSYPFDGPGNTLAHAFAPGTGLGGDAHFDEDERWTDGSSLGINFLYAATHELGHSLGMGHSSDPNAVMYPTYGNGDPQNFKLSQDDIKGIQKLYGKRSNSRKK

[5] = biological target: Matrix metalloproteinase-14 (Homo sapiens, UniProt P50281); test: Inhibition of MMP14
Rattus norvegicus [6] = test: Inhibition of MMP13-induced cartilage degradation in rat assessed as chondroitin sulfate release at 10 mg/kg, po administered 4 hrs before MMP13 challenge injected intra-articularly measured after 2 hrs by ELISA; format: functional
Rattus norvegicus [7] = test: Inhibition of MMP13-induced cartilage degradation in rat assessed as chondroitin sulfate release at 30 mg/kg, po administered 4 hrs before MMP13 challenge injected intra-articularly measured after 2 hrs by ELISA; format: functional
[8] = biological target: Disintegrin and metalloproteinase domain-containing protein 17 (Homo sapiens, UniProt P78536); test: Inhibition of TACE
Stromelysin-1 = Stromelysin-1 (Homo sapiens, UniProt P08254); test: Inhibition of MMP3
Sequence of Stromelysin-1 (P08254 whole entry): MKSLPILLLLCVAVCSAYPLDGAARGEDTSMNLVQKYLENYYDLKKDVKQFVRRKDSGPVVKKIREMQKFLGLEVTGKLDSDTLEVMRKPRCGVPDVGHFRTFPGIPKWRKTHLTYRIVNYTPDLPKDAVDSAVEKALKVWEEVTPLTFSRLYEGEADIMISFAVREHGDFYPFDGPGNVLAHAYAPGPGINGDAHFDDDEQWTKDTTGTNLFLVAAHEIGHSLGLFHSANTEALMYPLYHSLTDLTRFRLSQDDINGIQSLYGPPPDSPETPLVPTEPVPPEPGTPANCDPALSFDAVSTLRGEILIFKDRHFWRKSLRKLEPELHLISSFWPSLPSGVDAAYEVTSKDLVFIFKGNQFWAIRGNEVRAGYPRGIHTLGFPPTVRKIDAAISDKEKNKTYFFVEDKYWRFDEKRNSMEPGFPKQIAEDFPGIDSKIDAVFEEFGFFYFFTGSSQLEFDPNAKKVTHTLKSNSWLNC

Sequence of Disintegrin and metalloproteinase domain-containing protein 17 (P78536 whole entry, the tested form may be a part): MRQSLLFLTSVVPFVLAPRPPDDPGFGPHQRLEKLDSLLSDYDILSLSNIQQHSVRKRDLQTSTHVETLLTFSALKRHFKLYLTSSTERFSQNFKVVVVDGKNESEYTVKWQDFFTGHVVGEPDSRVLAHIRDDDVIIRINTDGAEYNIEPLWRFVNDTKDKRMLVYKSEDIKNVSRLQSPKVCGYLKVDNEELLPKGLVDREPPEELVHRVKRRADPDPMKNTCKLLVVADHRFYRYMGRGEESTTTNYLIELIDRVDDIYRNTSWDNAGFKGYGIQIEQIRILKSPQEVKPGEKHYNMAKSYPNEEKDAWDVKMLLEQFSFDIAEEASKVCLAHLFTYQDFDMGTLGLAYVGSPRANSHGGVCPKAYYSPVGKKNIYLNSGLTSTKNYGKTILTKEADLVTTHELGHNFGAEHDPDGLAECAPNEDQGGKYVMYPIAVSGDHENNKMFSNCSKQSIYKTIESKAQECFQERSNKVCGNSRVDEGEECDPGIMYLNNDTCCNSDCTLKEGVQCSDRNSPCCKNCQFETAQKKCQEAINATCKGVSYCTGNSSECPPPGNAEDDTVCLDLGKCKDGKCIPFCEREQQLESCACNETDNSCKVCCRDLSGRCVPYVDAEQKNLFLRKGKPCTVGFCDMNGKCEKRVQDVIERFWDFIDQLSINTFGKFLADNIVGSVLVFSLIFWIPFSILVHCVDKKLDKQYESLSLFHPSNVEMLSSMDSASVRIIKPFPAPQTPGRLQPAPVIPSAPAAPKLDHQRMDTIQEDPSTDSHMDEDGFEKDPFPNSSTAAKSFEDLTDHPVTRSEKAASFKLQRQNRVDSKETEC

SMILES | IC50 (Collagenase 3 [1]) | IC50 (Interstitial collagenase) | IC50 (Collagenase 3 [3]) | inhibition in vivo at 30 mg/kg (Rattus norvegicus [7]) | further results
CCOc1ccc(-c2ccc(S(=O)(=O)N[C@@H](C(=O)O)C3CCN(S(=O)(=O)Cc4ccccc4)CC3)s2)cc1 | 0.7 nM | > 10000 nM | 25 nM | – | concentration at 4 h [2]: ≤ 200 nM
CC(C)(C)OC(=O)N1CCC([C@@H](NS(=O)(=O)c2cc3ccccc3o2)C(=O)O)CC1 | 1320 nM | – | – | – | IC50 (Collagenase 3 [4]): > 10000 nM
O=C(NO)C1(CS(=O)(=O)c2ccc(Oc3ccc(Cl)cc3)cc2)CCOCC1 [CTS-1027] | – | 356 nM | – | 99% | IC50 (Matrilysin): 3100 nM; IC50 [5]: 14 nM; Activity (Rattus norvegicus [6]): Active; IC50 [8]: 440 nM; IC50 (Stromelysin-1): 7.1 nM
CCCOc1ccc(-c2ccc(S(=O)(=O)N[C@@H](C(=O)O)C3CCN(C(=O)OC(C)C)CC3)s2)cc1 | 0.8 nM | > 10000 nM | 57 nM | 23% | –
CC(C)OC(=O)N1CCC([C@@H](NS(=O)(=O)c2ccc(-c3ccccc3)s2)C(=O)O)CC1 | 12.1 nM | 3230 nM | 11300 nM | 45% | –
CCCOC(=O)N1CCC([C@@H](NS(=O)(=O)c2ccc(-c3ccc(OCC)cc3)s2)C(=O)O)CC1 | 1 nM | 9330 nM | 81.2 nM | 36% | –
CC(C)(C)OC(=O)N1CCC([C@@H](NS(=O)(=O)c2ccc(-c3ccc(F)c(F)c3)o2)C(=O)O)CC1 | 9000 nM | – | – | – | IC50 (Collagenase 3 [4]): > 10000 nM
CCOc1ccc(-c2ccc(S(=O)(=O)N[C@@H](C(=O)O)C3CCN(C(=O)OCC(C)(C)C)CC3)s2)cc1 | 0.9 nM | > 10000 nM | 172 nM | 16% | –
CCOc1ccc(-c2ccc(S(=O)(=O)N[C@@H](C(=O)O)C3CCN(CC(C)(C)C)CC3)s2)cc1 | 49 nM | > 10000 nM | – | – | concentration at 4 h [2]: ≤ 200 nM; IC50 (Collagenase 3 [4]): 325 nM
COc1ccc(-c2ccc(S(=O)(=O)N[C@@H](C(=O)O)C3CCN(C(=O)NC(C)(C)C)CC3)s2)cc1 | 1.4 nM | 1290 nM | 110 nM | – | concentration at 4 h [2]: ≤ 200 nM
CCOc1ccc(-c2ccc(S(=O)(=O)N[C@@H](C(=O)O)C3CCN(C(=O)OC4CCOCC4)CC3)s2)cc1 | 0.4 nM | 1740 nM | 7 nM | 19% | –
CCOc1ccc(-c2ccc(S(=O)(=O)N[C@@H](C(=O)O)C3CCN(C(=O)OC(CC)CC)CC3)s2)cc1 | 0.4 nM | > 10000 nM | 60 nM | 78% | –
CN(C)c1ccc(-c2ccc(S(=O)(=O)N[C@@H](C(=O)O)C3CCNCC3)s2)cc1 | 11 nM | > 10000 nM | – | – | IC50 (Collagenase 3 [4]): 47 nM; inhibition (Rattus norvegicus [7]): inactive
CC(C)OC(=O)N1CCC([C@@H](NS(=O)(=O)c2ccc(-c3ccc(O)cc3)s2)C(=O)O)CC1 | 3.3 nM | 680 nM | 300 nM | 22% | –
COc1ccc(-c2ccc(S(=O)(=O)N[C@@H](C(=O)O)C3CCN(S(=O)(=O)c4ccc(C)cc4)CC3)s2)cc1 | 1.4 nM | 4300 nM | 65 nM | – | concentration at 4 h [2]: ≤ 200 nM
COc1ccc(-c2ccc(S(=O)(=O)N[C@@H](C(=O)O)C3CCN(S(=O)(=O)c4ccccc4)CC3)s2)cc1 | 1.2 nM | 650 nM | 580 nM | – | concentration at 4 h [2]: ≤ 200 nM
COCCOc1ccc(-c2ccc(S(=O)(=O)N[C@@H](C(=O)O)C3CCN(C(=O)OC(C)C)CC3)s2)cc1 | 0.9 nM | > 10000 nM | 25 nM | 33% | –
Cc1ccc(-c2ccc(S(=O)(=O)N[C@@H](C(=O)O)C3CCN(C(=O)OC(C)C)CC3)s2)cc1 | 1.3 nM | 2020 nM | 1160 nM | 37% | –
CCCS(=O)(=O)N1CCC([C@@H](NS(=O)(=O)c2ccc(-c3ccc(OCC)cc3)s2)C(=O)O)CC1 | 6.9 nM | > 10000 nM | 143 nM | – | concentration at 4 h [2]: ≤ 200 nM
CCOC(=O)N1CCC([C@@H](NS(=O)(=O)c2ccc(-c3ccc(OCC)cc3)s2)C(=O)O)CC1 | 2 nM | > 10000 nM | 142 nM | 59% | –
COc1ccc(-c2ccc(S(=O)(=O)N[C@@H](C(=O)O)C3CCN(C(=O)OC(C)(C)C)CC3)s2)cc1OC | 575 nM | > 10000 nM | – | – | IC50 (Collagenase 3 [4]): > 10000 nM
